PubChem BioAssay (NCI)
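Protocol summary: plate cells (96-well), add compound at 5 concentrations, incubate 48 h, interpolate endpoints linearly. The concentration for full growth arrest is given as TGI.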

Legend:
Test in all cases: inhibition of tumour cell growth, NCI panel, 48 h
[1] = tested on: A549 NSCLC
[2] = tested on: K-562 leukemia
[3] = tested on: UO-31 renal
[4] = tested on: HT29 colon
[5] = tested on: EKVX NSCLC
[6] = tested on: MOLT-4 leukemia
[7] = tested on: RPMI-8226 leukemia
[8] = tested on: TK-10 renal
[9] = tested on: NCI-H460 lung
[10] = tested on: NCI-H522 lung
[11] = tested on: UACC-62 melanoma
[12] = tested on: SK-MEL-28 melanoma
[13] = tested on: SK-MEL-5 melanoma
[14] = tested on: OVCAR-4 ovarian
[15] = tested on: ACHN renal
[16] = tested on: HOP-62 NSCLC
[17] = tested on: SK-MEL-2 melanoma
[18] = tested on: BT-549 breast
[19] = tested on: SF-295 CNS
[20] = tested on: CAKI-1 renal
[21] = tested on: T-47D breast
[22] = tested on: KM12 colon
[23] = tested on: NCI/ADR-RES ovarian
[24] = tested on: OVCAR-5 ovarian
[25] = tested on: MALME-3M melanoma
[26] = tested on: SK-OV-3 ovarian
[27] = tested on: CCRF-CEM leukemia
[28] = tested on: SNB-75 CNS
[29] = tested on: 786-0 renal
[30] = tested on: HCT-116 colon
[31] = tested on: MDA-MB-231 breast
[32] = tested on: MDA-MB-435
[33] = tested on: MCF7 breast
[34] = tested on: HOP-92 NSCLC
[35] = tested on: MDA-N
[36] = tested on: SNB-19 CNS
[37] = tested on: HCC-2998 colon
[38] = tested on: M14 melanoma
[39] = tested on: COLO 205 colon
[40] = tested on: A498 renal
[41] = tested on: DU-145 prostate
[42] = tested on: OVCAR-3 ovarian
[43] = tested on: NCI-H23 lung
[44] = tested on: SF-268 CNS
[45] = tested on: HCT-15 colon
[46] = tested on: UACC-257 melanoma
[47] = tested on: PC-3 prostate
[48] = tested on: SN12C renal
[49] = tested on: U251 CNS
[50] = tested on: HS 578T breast
[51] = tested on: OVCAR-8 ovarian
[52] = tested on: SW-620 colon
[53] = tested on: RXF 393 renal
[54] = tested on: HL-60(TB) leukemia
[55] = tested on: LOX IMVI melanoma
[56] = tested on: IGROV1 ovarian
[57] = tested on: NCI-H226 lung
[58] = tested on: SR leukemia
[59] = tested on: SF-539 CNS

COC(=O)C1=C(CCCCO[Si](C)(C)C(C)(C)C)NC(=O)N2[C@@H](CCOCc3ccccc3)CC[C@H]12
TGI [1]: 77.7 µM | TGI [2]: > 100 µM | TGI [3]: 56.2 µM | TGI [4]: 35.1 µM | TGI [5]: > 100 µM | TGI [6]: > 100 µM | TGI [7]: > 100 µM | TGI [8]: > 100 µM | TGI [9]: > 100 µM | TGI [10]: 48.2 µM | TGI [11]: > 100 µM | TGI [12]: > 100 µM | TGI [13]: 22.2 µM | TGI [14]: > 100 µM | TGI [15]: > 100 µM | TGI [16]: 65.2 µM | TGI [17]: 35.8 µM | TGI [18]: 51 µM | TGI [19]: > 100 µM | TGI [20]: 92.9 µM | TGI [21]: > 100 µM | TGI [22]: 44.2 µM | TGI [23]: 42.4 µM | TGI [24]: > 100 µM | TGI [25]: 47.3 µM | TGI [26]: > 100 µM | TGI [27]: 51.9 µM | TGI [28]: > 100 µM | TGI [29]: 30.9 µM | TGI [30]: 24.6 µM | TGI [31]: 52.1 µM | TGI [32]: > 100 µM | TGI [33]: > 100 µM | TGI [34]: 34.4 µM | TGI [35]: 49.9 µM | TGI [36]: > 100 µM | TGI [37]: 78.9 µM | TGI [38]: 79.4 µM | TGI [39]: 32.4 µM | TGI [40]: > 100 µM | TGI [41]: > 100 µM | TGI [42]: 30.1 µM | TGI [43]: 67.9 µM | TGI [44]: > 100 µM | TGI [45]: 43.9 µM | TGI [46]: > 100 µM | TGI [47]: 75.8 µM | TGI [48]: 32.7 µM | TGI [49]: 28.2 µM

CN(CCCN(C)CCc1ccc(Cl)c(Cl)c1)CCCN1CCCC1
TGI [1]: 11.2 µM | TGI [2]: 1.3 µM | TGI [3]: 2.76 µM | TGI [4]: 2.58 µM | TGI [5]: 13.7 µM | TGI [6]: 12.4 µM | TGI [7]: 2.19 µM | TGI [8]: 5.52 µM | TGI [9]: 5.98 µM | TGI [10]: 3.51 µM | TGI [11]: 3.49 µM | TGI [12]: 3.18 µM | TGI [14]: 20.5 µM | TGI [50]: 4.31 µM | TGI [15]: 19.2 µM | TGI [16]: 10.5 µM | TGI [17]: 3.48 µM | TGI [18]: 19 µM | TGI [19]: 4.76 µM | TGI [20]: 6.33 µM | TGI [51]: 10.9 µM | TGI [52]: 7.96 µM | TGI [53]: 4.58 µM | TGI [54]: 4.12 µM | TGI [21]: 5.94 µM | TGI [22]: 7.99 µM | TGI [23]: 19.8 µM | TGI [24]: 15.1 µM | TGI [25]: 3.83 µM | TGI [26]: 23.1 µM | TGI [27]: 2.12 µM | TGI [55]: 3.54 µM | TGI [28]: 8.91 µM | TGI [29]: 2.76 µM | TGI [30]: 4.11 µM | TGI [31]: 3.61 µM | TGI [32]: 1.42 µM | TGI [33]: 3.69 µM | TGI [34]: 11.5 µM | TGI [35]: 2.65 µM | TGI [36]: 13.7 µM | TGI [37]: 0.82 µM | TGI [38]: 3.66 µM | TGI [39]: 6.84 µM | TGI [56]: 8.65 µM | TGI [40]: 3.37 µM | TGI [41]: 21.4 µM | TGI [42]: 14.8 µM | TGI [43]: 14.3 µM | TGI [44]: 7.02 µM | TGI [45]: 7.22 µM | TGI [46]: 3.46 µM | TGI [47]: 15.1 µM | TGI [57]: 5.68 µM | TGI [48]: 11.8 µM | TGI [49]: 4.62 µM

Cn1cnc(N2CCCC2)c(C#N)c1=O
TGI [1]: > 100 µM | TGI [2]: > 100 µM | TGI [3]: > 100 µM | TGI [4]: > 100 µM | TGI [5]: > 100 µM | TGI [58]: > 100 µM | TGI [6]: > 100 µM | TGI [7]: > 100 µM | TGI [8]: > 100 µM | TGI [9]: > 100 µM | TGI [10]: > 100 µM | TGI [11]: > 100 µM | TGI [12]: > 100 µM | TGI [13]: > 100 µM | TGI [14]: > 100 µM | TGI [50]: > 100 µM | TGI [15]: > 100 µM | TGI [16]: > 100 µM | TGI [17]: > 100 µM | TGI [19]: > 100 µM | TGI [20]: > 100 µM | TGI [51]: > 100 µM | TGI [52]: > 100 µM | TGI [53]: > 100 µM | TGI [54]: > 100 µM | TGI [21]: > 100 µM | TGI [22]: > 100 µM | TGI [23]: > 100 µM | TGI [24]: > 100 µM | TGI [25]: > 100 µM | TGI [27]: > 100 µM | TGI [55]: > 100 µM | TGI [29]: > 100 µM | TGI [30]: > 100 µM | TGI [31]: > 100 µM | TGI [32]: > 100 µM | TGI [33]: > 100 µM | TGI [34]: > 100 µM | TGI [35]: > 100 µM | TGI [36]: > 100 µM | TGI [37]: > 100 µM | TGI [38]: > 100 µM | TGI [59]: > 100 µM | TGI [39]: > 100 µM | TGI [56]: > 100 µM | TGI [40]: > 100 µM | TGI [41]: > 100 µM | TGI [42]: > 100 µM | TGI [43]: > 100 µM | TGI [44]: > 100 µM | TGI [45]: > 100 µM | TGI [46]: > 100 µM | TGI [47]: > 100 µM | TGI [57]: > 100 µM | TGI [48]: > 100 µM | TGI [49]: > 100 µM

Cc1ccc(S(=O)(=O)Nn2c(S)c(C#N)c(-c3ccc([N+](=O)[O-])cc3)c(C#N)c2=O)cc1
TGI [1]: > 100 µM | TGI [2]: 53.2 µM | TGI [4]: > 100 µM | TGI [5]: > 100 µM | TGI [6]: 47.7 µM | TGI [7]: 37.8 µM | TGI [8]: > 100 µM | TGI [9]: > 100 µM | TGI [10]: 30.2 µM | TGI [11]: 98.2 µM | TGI [12]: > 100 µM | TGI [13]: 29.5 µM | TGI [14]: > 100 µM | TGI [50]: 86.5 µM | TGI [15]: > 100 µM | TGI [16]: > 100 µM | TGI [17]: 80.1 µM | TGI [18]: 29.6 µM | TGI [19]: > 100 µM | TGI [20]: > 100 µM | TGI [51]: > 100 µM | TGI [52]: 35.1 µM | TGI [53]: > 100 µM | TGI [22]: > 100 µM | TGI [23]: > 100 µM | TGI [24]: > 100 µM | TGI [25]: > 100 µM | TGI [26]: > 100 µM | TGI [27]: 52.6 µM | TGI [55]: 28.5 µM | TGI [28]: > 100 µM | TGI [29]: 52.2 µM | TGI [30]: 32.8 µM | TGI [31]: 36.5 µM | TGI [32]: 53.9 µM | TGI [33]: > 100 µM | TGI [34]: > 100 µM | TGI [35]: 73.1 µM | TGI [37]: > 100 µM | TGI [38]: > 100 µM | TGI [59]: 35.4 µM | TGI [39]: 98.3 µM | TGI [56]: 51 µM | TGI [40]: > 100 µM | TGI [44]: > 100 µM | TGI [45]: 49.7 µM | TGI [46]: > 100 µM | TGI [47]: > 100 µM | TGI [57]: > 100 µM | TGI [48]: 37.3 µM | TGI [49]: 98 µM
